Consider one molecule from patent US11013732B2, “Use of macroazapyridinophanes metal complexes in the treatment of diseases” (BIONOS BIOTECH, S.L, priority 2017, dated 2021).

The experiment has as its system Caenorhabditis elegans expressing 110Q::TdTomato in mechanosensory neurons. The experiment in a line: Gentle touch sensitivity in C. elegans' Huntington's disease model expressing 110Q::TdTomato. The format is in vivo. To be noted: 110Q::TdTomato animals without metal complex (II). On the procedure: The study was conducted to assess whether administration of metal complex (II) improves the neurosensitivity (gentle touch sensitivity) in Caenorhabditis elegans' (C. elegans) Huntington's disease model.
The initial and most generally used method to test for gentle touch sensitivity is to stroke animals with an eyebrow hair that has been glued to the end of a toothpick (FIG. 4).
C. elegans expressing 110CAG fused in frame with TdTomato in mechanosensory neurons aggregate and induced neural impairment were used. […] The tissue in light grey is the marker for transgenesis (i.e. green fluorescent protein (GFP) expressed in the pharynx).
The test was carried out using non-treated animals (expressing 110Q::TdTomato and thus showing neuronal impairment) as a control C, and animals treated with Metformin at 2 mM were used as a positive control. Each test was carried out treating animals (expressing 110Q::TdTomato showing neuronal impairment) with 5, 10 and 20 μM concentrations of metal complex (II), using non-treated animals as a control and animals treated with Metformin at a concentration of 2 mM as a positive control.
Finally, it was tested whether the rescue of the neuronal impairment due to 110Q::TdTomato expression shown with the treatment of metal complex (II) is produced by activation of autophagy. […]

`CCN(CC)CCCC(C)Nc1ccnc2cc(Cl)ccc12` (stereo not shown) [Chloroquine, reference compound]: the “% of individuals showing touch response, chloroquine alone” value is listed as “does not induce additional touch response impairment”.
